Measured values published in patent publication US20070202547A1, “Methods For Detecting Substances Which Bind To The Amyloid Precursor Protein Or Beta Amyloid Fragments, And Binding Compounds” (priority 2004, published 2007).

Assays:
gamma-secretase = gamma-secretase (Homo sapiens, UniProt P05067); assay: Gamma-secretase cleavage of CTFβ substrate (HeLa cell membrane extract); type: biochemical; details: Aβ40 detection with 6E-10/G2-10, read-out: CTFβ CLEAVAGE AT POSITION 40
Method: Accordingly, Examples 1-4 were tested for their ability to inhibit gamma-secretase cleavage of both a full-length CTFβ substrate, as described in Li, 2000, Proc. Natl Acad Sci. 97:6138-6143. The assays were carried out as follows:
Inhibition of CTFβ Cleavage
• 10 μL 10× protease inhibitor cocktail (Roche, cat # 1836153) • 25 μL 4× Buffer (50 mM PIPES pH7.0, 150 mM KCl, 5 mM MgCl2, 5 mM CaCl2) • 2 μL 10% CHAPSO • 5 μL HeLa cell membrane extract characterized for gamma-secretase activity • 7 μL 25 μM bacterially expressed CTFβ • 51 μL water • 1 μL compound in DMSO The reactions were incubated at 37° C. for 150 min and quenched with 25 μL 5× RIPA buffer (750mM NaCl, 5% NP-40, 2.5% DOC, 0.5% SDS, 250 mM Tris H8.0). Detection:
Gamma-secretase cleavage of the CTFβ substrate was assessed by incubating 50 μL of the reaction with 25 μL of 4 μg/mL biotinylated antibody 6E-10 which is specific for the N-terminal region of Aβ, and 25 μL of 1.5 μg/mL of a ruthinylated antibody G2-10, which is specific to the C-terminal region of Aβ40. The C-terminal region is present only after gamma secretase cleavage of Aβ. The antibodies were allowed to bind overnight at room temperature. The following day, 25 μL of 80 μg/mL streptavidin-coated Dynabeads (M-280) were added to each reaction, allowed to bind for 30 minutes, and quenched with 275 μL IGEN assay buffer. Quantification of the gamma-secretase cleavage products was carried out using an Origen Analyzer.

EV-amyloid = target: T1, EV-amyloid (Homo sapiens, UniProt P05067, A673V/D672E); assay: Antibody binding to EV-amyloid, ALPHA sandwich assay; details: 37° C., 1 hour; G2-10 and anti-NH2-EVEFR antibodies
T1 construct: An Aβ variant peptide similar to Aβ 1-40
Source text: Compounds interacting with secretase or antibody binding to the Aβ domain of APP (or an APP variant) nay also be expected to interact with Aβ or related amyloidogenic peptides. An Aβ variant peptide similar to Aβ 1-40, but with Glu and Val replacing the N-terminal two amino acids (hereafter referred to as “EV-amyloid”), as described in WO 02/094985 and US 2003/0200555 A1, was used to assess interactions between benzofurans and amyloid peptide. As with full length APP variant in Example 5, masking of antibody binding sites was used to assay the potential interactions.
The assay was carried out as follows:
• 1. A master mix of EV-amyloid peptide in binding buffer was made as follows: 10650 μL 0.1% bovine serum albumin in phosphate buffered saline, 1200 μL 10× Protease Inhibitor cocktail (Roche, cat # 1836153), 30 μL EV amyloid peptide (4 μM in DMSO). • 2. […] Interaction between EV amyloid and antibody was assessed by quantification of the EV amyloid peptide by antibody sandwich assay using ALPHA detection. • 7. […]
The solutions were incubated at room temperature for 1 hour prior to addition to the EV-amyloid binding reaction. • 8. […] The plate was incubated overnight, in the dark, at room temperature, and antibody binding to EV-amyloid was detected via ALPHA Quest.

BACE2 = target: T2, BACE2 (Homo sapiens, UniProt P05067, K670N/M671F/D672E/A673V); assay: BACE2 cleavage of APP at the beta-secretase cleavage site (ALPHA); type: biochemical; details: result in words
T2 construct: IC50, BACE2 cleavage of APP at the beta-secretase cleavage site; other: MBP-biotinylated APP fusion protein with NFEV s; activity against BACE2 cleavage of APP at the beta-secretase position; other: result in words; biotin label
Method: The effect of Examples 1-4 on cleavage of APP at the beta-secretase cleavage site was assayed as follows:
• 25 μL 0.2 M Sodium Acetate, pH 4.5 • 10 μL 10× protease inhibitor cocktail (Roche, cat # 1836153) • 10 μL Bovine Serum Albumin (1 mg/mL solution) • 4 μL 5% CHAPS • 1 μL EDTA (150 mM, pH 4.5) • 2 μL DF • 4 μL MBP(Maltose binding protein)—biotininylated APP fusion protein containing the NFEV BACE cleavage site (bacterially expressed, 10 μM solution) • 1 μL DMSO or compound dissolved in DMSO • 2 μL BACE2 (CHO cell expressed protein, 250 nM) • 41 μL distilled water The reactions were incubated at 37° C. for 30 minutes, and were then quenched with 4 μL 1 M TrisHCl, pH 8.0. Detection of MBP Biotin APP(NF) Cleavage Product using ALPHA ALPHA Assay Mix was Prepared as Follows: • 20 μL Streptavidin Donor Beads (from AlphaScreen General IgG (Protein A) Detection Kit Perkin Elmer Life Sciences); 10,000 pts (Part Number 6760617M) • 20 μL Protein A Acceptor beads (from AlphaScreen General IgG (Protein A) Detection Kit Perkin Elmer Life Sciences); 10,000 pts (Part Number 6760617M) • 3.7 μL Affinity purified anti-NF antibody (203 μg/mL) (described in WO 02/094985) • 4.5 mL 0.1% BSA in PBS • 4 μL of quenched reaction mixture was combined with 46 μL of the assay mix. The reactions were incubated at room temperature overnight and read using the ALPHAQuest plate reader.

Row | SMILES | IC50 (gamma-secretase) [µM] | inhibition of antibody binding to EV amyloid (EV-amyloid) | activity against BACE2 cleavage of APP at the beta-secretase position (BACE2)
1 | O=C(O)COc1cc2c(cc1CCCOc1ccccc1Cl)OC(CCc1ccccc1)C2 (stereo not drawn) [Example 2, {[6-[3-(2chlorophenoxy)propyl)-2-(2-phenylethyl)-2,3-dihydro-1-benzofuran-5-yl]oxy} acetic] | 8 | approximately 40% | capable of inhibiting BACE2 cleavage of APP at the beta-secretase position with similar effectiveness to their inhibition of BACE1 cleavage at the same site
2 | O=C(O)COc1cc2c(cc1CCCOc1ccccc1)OC(CCc1ccccc1)C2 (stereo not drawn) [Example 1, {[6-(3-phenoxypropyl)-2-(2-phenylethyl)-2,3-dihydro-1-benzofuran-5-yl]oxy} acetic acid] | 29 | approximately 40% | capable of inhibiting BACE2 cleavage of APP at the beta-secretase position with similar effectiveness to their inhibition of BACE1 cleavage at the same site
